Inhibition data for 1 molecule are collected here from article PMC6934184, “Selective DNA-PKcs inhibition extends the therapeutic index of localized radiotherapy and chemotherapy” (The Journal of Clinical Investigation, 2019).

This test concerns the target T1, PIK3CB/PIK3R1 (p110β/p85α) (Homo sapiens, UniProt P42338).
T1 construct: purchased Thermo Fisher Scientific (Life Technologies) SelectScreen
The test is described as follows: SelectScreen Adapta. Format: biochemical. The procedure, abridged: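 NU5455 was profiled across the SelectScreen Broad panel of kinase activity and binding assays. Z'LYTE reactions such as CSF1R ran at apparent Km ATP, while the Adapta CAMK1 assay used ATP listed as 10. Values are given as percent.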

T1 sequence (P42338 whole entry): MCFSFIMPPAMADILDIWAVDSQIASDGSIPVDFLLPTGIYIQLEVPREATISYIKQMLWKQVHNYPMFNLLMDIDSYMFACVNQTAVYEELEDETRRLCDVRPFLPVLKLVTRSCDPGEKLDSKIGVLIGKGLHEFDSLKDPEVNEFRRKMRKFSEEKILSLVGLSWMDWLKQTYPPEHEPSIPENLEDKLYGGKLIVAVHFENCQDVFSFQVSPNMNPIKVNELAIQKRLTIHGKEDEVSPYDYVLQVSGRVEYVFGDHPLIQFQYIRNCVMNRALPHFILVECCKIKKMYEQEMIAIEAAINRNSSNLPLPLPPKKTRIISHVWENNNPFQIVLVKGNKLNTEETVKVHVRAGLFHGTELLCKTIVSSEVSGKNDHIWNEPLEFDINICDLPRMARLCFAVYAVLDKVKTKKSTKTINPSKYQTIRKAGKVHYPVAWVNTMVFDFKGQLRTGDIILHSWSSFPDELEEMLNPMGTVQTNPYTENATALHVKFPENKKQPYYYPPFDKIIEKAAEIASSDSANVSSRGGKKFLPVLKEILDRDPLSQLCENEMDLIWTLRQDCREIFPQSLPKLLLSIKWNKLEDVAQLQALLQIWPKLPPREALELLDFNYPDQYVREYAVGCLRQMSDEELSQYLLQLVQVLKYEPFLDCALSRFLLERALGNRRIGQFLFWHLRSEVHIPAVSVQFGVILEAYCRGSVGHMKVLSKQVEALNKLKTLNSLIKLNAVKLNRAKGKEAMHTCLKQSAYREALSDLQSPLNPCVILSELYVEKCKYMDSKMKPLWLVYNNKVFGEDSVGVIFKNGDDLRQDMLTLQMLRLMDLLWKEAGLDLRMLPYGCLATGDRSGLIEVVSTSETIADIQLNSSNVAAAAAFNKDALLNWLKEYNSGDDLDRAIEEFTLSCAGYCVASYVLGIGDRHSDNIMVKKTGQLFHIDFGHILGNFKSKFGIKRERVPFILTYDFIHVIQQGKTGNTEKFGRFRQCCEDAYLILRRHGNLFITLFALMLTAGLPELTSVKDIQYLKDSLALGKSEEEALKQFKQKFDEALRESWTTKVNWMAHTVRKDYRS
T1 sequence (P27986 whole entry partner): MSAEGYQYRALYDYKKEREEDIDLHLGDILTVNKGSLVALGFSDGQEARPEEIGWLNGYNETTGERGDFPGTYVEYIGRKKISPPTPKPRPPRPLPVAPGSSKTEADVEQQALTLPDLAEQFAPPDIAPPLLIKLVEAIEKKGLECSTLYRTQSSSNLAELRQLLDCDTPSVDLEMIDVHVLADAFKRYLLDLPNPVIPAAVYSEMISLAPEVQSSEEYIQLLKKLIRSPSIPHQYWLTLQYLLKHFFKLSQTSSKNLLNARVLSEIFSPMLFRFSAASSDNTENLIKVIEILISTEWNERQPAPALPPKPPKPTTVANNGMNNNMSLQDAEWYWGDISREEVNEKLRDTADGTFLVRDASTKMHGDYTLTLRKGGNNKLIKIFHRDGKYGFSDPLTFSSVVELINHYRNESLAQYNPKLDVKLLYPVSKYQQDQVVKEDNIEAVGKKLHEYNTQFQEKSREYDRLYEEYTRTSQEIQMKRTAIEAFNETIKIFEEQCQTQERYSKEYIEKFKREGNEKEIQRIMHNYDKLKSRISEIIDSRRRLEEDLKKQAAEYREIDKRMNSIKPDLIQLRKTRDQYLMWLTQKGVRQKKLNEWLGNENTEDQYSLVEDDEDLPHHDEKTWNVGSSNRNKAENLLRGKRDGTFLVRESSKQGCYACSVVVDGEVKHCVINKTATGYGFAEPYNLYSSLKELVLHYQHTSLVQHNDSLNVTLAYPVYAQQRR

As a reminder, the inhibition is the relative decrease from the control value, in per cent. Take `CN(C(=O)CN1CCOCC1)c1ccc2sc3c(-c4cccc5c(=O)cc(N6CC7CCC(C6)O7)oc45)cccc3c2c1` [NU5455]: the inhibition at 1 µM is -3.8%.
